Source: patent US20140135310A1, “SULPHONAMIDE DERIVATIVES OF ALICYCLIC AMINES FOR THE TREATMENT OF CENTRAL NERVOUS SYSTEM DISEASES” (Adamed Sp. z o.o., priority 2011, published 2014)

Key:
M3 muscarinic receptors = molecular target: T1, M3 muscarinic receptors (Homo sapiens, UniProt P20309); experiment: Radioligand binding assay, muscarinic M3 receptors; conditions: test compound 1×10^−6 M
T1 construct: expressed in transfected cells; host or cells: CHO cells
Source text: (§1) The specific ligand binding to the receptors is defined as the difference between the total binding and the non-specific binding determined in the presence of the excess of unlabelled ligand.
(§2) The results are expressed as a percent of control specific binding ((measured specific binding/control specific binding)×100) and as a percent inhibition of control specific binding (100−((measured specific binding/control specific binding)×100)) obtained in the presence of the test compounds. The specific ligand binding to the receptors is defined as the difference between the total binding and the nonspecific binding determined in the presence of an excess of unlabelled ligand. Scintillation counting was the method of detection of ligand binding. The IC50 values (concentration causing a half-maximal inhibition of control specific binding) were determined by non-linear regression analysis of the competition curves generated with mean replicate values using Hill equation curve fitting (Y=D+[(A−D)/(1+(C/C50)nH)], where Y=specific binding, D=minimum specific binding, A=maximum specific binding, C=compound concentration, C50=IC50, and nH=slope factor). This analysis was performed using a software developed at Cerep (Hill software) and validated by comparison with data generated by the commercial software SigmaPlot® 4.0 for Windows® (© 1997 by SPSS Inc.). The inhibition constants (Ki) were calculated using the Cheng Prusoff equation (Ki=IC50/(1+(L/KD)), where L=concentration of radioligand in the assay, and KD=affinity of the radioligand for the receptor). A scatchard plot was used to determine the Kd.
Experimental conditions for tests are given in Table 10, and results of tests for representative compounds are given in Table 11.

σ receptors = experiment: Radioligand binding assay, σ receptors; conditions: rat cerebral cortex, [3H]DTG 8 nM
Source text: as §1
as §2, with “This analysis was performed using a software developed at Cerep (Hill software) and validated by comparison with data generated by the commercial software SigmaPlot® 4.0 for Windows® (© 1997 by SPSS Inc.).” left out

[1] = tested on: α1 adrenergic receptors (rat cerebral cortex); experiment: Radioligand binding assay, adrenergic α1 receptors; conditions: test compound 1×10^−6 M
Summary of the method: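 Values derive from radioligand displacement, with non-specific binding defined by excess cold ligand and detection by scintillation. Hill-fit IC50s were converted to Ki via Cheng-Prusoff using Scatchard-derived Kd; percent inhibition of control specific binding also reported.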

receptors D4.4 = molecular target: T2, receptors D4.4 (Homo sapiens, UniProt P21917); experiment: Radioligand binding assay, dopaminergic D4 (D4.4) receptors; conditions: test compound 1×10^−6 M
T2 sequence (P21917 1-419): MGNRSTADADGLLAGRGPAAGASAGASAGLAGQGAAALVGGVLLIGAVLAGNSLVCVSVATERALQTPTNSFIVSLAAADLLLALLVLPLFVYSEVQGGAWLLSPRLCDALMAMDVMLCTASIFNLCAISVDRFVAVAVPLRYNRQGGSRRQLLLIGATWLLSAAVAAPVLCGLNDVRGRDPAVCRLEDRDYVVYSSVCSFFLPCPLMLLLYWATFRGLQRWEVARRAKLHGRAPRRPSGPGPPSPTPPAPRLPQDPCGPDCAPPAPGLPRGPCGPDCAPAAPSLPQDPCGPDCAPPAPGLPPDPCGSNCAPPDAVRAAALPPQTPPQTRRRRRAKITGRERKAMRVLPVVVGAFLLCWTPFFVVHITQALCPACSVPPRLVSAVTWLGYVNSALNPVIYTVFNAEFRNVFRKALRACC
Source text: as §1, §2
Experimental conditions for tests are given in Table 1, the results of tests for representative compounds are given in Tables 2a and 2b (receptors D2 and D3) and in Table 3 (receptors D4).

5-HT7 receptor = molecular target: T3, 5-HT7 receptor (Homo sapiens, UniProt P34969); experiment: Radioligand binding assay, serotoninergic 5-HT7 receptors; conditions: binding assay result in %, Table 5a;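 further: test compound at 1 µM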
T3 construct: purchased PerkinElmer
Summary of the method: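 Competition binding at human 5-HT7 receptors with a radioligand, detected by scintillation counting; non-specific binding was defined with excess unlabelled ligand. IC50 came from Hill-equation fits of competition curves, and Ki from Cheng–Prusoff using radioligand concentration and Scatchard-derived KD.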

[2] = molecular target: T4, 5-HT1A receptor (rat hippocampus) (Rattus norvegicus, UniProt P19327); experiment: Radioligand binding assay, serotoninergic 5-HT1A receptors; conditions: binding assay result in %, Table 5a;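 further: test compound at 1 µM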
T4 construct: hippocampus; from tissue; host or cells: rat hippocampus
T4 sequence (P19327 1-422): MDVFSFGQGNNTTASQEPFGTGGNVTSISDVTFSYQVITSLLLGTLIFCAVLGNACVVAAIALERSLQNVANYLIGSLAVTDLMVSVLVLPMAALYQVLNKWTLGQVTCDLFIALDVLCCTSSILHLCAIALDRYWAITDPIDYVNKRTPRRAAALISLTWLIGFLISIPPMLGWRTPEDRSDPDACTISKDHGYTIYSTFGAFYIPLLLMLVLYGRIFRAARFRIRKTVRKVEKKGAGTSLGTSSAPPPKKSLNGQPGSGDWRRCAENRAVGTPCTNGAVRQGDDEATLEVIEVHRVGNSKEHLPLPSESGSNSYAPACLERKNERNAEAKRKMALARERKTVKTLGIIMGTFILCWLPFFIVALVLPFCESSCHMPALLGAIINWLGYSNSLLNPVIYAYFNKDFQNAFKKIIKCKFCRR

5-HT2A receptor = molecular target: T5, 5-HT2A receptor (Homo sapiens, UniProt P28223); experiment: Radioligand binding assay, serotoninergic 5-HT2A receptors; conditions: binding assay result in %, Table 5a
T5 construct: purchased PerkinElmer
Summary of the method: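 Radioligand competition binding with scintillation counting; nonspecific binding defined by excess unlabelled ligand. Data as percent inhibition of control specific binding. IC50 by Hill-equation fit of competition curves; Ki by Cheng-Prusoff, with radioligand Kd from Scatchard plot.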

[3] = molecular target: T6, H1 histaminergic receptors (Homo sapiens, UniProt P35367); experiment: Radioligand binding assay, histaminergic H1 receptors; conditions: human recombinant (HEK-293 cells), [3H]pyrilamine 1 nM
T6 construct: expressed in transfected cells; host or cells: HEK-293 cells
Source text: as §1, §2
Experimental conditions for tests are given in Table 14, and results of tests for representative compounds are presented in Table 15.

T6 sequence (P35367 whole entry): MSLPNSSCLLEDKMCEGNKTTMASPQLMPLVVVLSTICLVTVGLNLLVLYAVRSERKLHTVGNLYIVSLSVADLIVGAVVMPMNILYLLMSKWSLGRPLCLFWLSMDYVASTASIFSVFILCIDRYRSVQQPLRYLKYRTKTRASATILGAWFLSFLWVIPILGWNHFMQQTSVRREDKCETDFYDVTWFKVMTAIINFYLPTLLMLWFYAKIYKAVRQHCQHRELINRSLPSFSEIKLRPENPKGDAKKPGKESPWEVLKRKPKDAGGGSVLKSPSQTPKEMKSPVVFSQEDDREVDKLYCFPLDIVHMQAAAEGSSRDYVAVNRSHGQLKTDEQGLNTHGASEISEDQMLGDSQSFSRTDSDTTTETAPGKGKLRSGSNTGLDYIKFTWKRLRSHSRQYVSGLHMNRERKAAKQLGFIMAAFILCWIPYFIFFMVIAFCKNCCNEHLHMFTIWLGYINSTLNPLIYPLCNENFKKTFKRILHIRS
T1 sequence (P20309 whole entry): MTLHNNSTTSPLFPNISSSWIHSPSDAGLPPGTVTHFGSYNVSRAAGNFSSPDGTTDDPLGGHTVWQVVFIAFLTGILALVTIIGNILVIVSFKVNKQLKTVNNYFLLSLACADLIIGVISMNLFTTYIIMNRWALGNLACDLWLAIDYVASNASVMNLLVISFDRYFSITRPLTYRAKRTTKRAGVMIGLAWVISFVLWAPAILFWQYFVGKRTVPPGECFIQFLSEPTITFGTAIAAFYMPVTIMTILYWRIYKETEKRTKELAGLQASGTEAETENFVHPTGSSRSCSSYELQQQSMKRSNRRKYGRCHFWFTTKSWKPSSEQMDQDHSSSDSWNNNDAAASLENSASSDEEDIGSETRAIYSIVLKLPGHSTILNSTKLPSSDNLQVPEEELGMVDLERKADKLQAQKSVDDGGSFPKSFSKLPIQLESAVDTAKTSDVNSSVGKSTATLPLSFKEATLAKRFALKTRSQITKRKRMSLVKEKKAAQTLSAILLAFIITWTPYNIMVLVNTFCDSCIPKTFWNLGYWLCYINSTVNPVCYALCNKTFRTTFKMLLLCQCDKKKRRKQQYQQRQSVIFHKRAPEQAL
T3 sequence (P34969 whole entry): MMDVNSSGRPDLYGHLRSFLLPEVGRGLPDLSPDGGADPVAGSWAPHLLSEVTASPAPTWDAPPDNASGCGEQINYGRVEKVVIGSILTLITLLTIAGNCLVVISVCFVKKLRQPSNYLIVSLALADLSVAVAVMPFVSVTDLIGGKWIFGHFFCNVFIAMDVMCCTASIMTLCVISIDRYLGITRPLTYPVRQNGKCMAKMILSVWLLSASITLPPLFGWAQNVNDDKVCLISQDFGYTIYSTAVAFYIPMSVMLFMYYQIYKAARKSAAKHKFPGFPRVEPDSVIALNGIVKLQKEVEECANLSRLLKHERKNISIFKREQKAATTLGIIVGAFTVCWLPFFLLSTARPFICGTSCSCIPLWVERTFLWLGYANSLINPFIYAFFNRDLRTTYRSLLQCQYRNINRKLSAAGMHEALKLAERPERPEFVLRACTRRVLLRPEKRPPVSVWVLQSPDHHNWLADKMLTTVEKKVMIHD
T5 sequence (P28223 whole entry): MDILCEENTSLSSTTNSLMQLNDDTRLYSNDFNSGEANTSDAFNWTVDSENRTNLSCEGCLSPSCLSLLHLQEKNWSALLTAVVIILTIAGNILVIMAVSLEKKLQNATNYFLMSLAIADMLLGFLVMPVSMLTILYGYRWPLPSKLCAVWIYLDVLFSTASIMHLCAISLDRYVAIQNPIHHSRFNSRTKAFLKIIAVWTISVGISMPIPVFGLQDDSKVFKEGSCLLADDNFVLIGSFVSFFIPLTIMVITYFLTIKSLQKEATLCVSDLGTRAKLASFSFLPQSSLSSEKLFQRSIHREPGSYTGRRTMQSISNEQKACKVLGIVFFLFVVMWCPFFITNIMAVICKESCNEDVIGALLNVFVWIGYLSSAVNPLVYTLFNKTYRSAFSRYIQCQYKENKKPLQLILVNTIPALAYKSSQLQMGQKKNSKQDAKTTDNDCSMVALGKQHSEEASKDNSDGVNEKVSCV

With `O=S(=O)(NC1CCN(CCOc2nsc3ccccc23)C1)c1ccc2ccccc2c1` (stereo not drawn) [Compound 39, N-[1-[2-(1,2-Benzothiazol-3-yloxy)ethyl]pyrrolidin-3-yl]naphthalene-2-sulphonamide] the inhibition at 1 µM (M3 muscarinic receptors) was 19%, the “σ [%]” value (σ receptors) was 54% and the “α1 [%]” value [1] was 29%. It also gave an inhibition at 1 µM (receptors D4.4) of 73%, an inhibition at 1 µM (5-HT7 receptor) of 90% and an inhibition at 1 µM [2] of 99%. It also gave an inhibition at 1 µM (5-HT2A receptor) of 99%.
For `O=S(=O)(NC1CN(CCOc2cccc3[nH]ccc23)C1)c1cccc2ccccc12` [Compound 49, N-[1-[2-(1H-Indol-4-yloxy)ethyl]azetidin-3-yl]naphthalene-1-sulphonamide], the inhibition at 1 µM (M3 muscarinic receptors) was 11%, the “σ [%]” value (σ receptors) was 50% and the “α1 [%]” value [1] was 89%. It also gave an inhibition at 1 µM (receptors D4.4) of 82%, an inhibition at 1 µM (5-HT7 receptor) of 100% and an inhibition at 1 µM [2] of 100%. It also gave an inhibition at 1 µM (5-HT2A receptor) of 82%.
With `O=S(=O)(NC1CCN(CCCc2c[nH]c3ccc(F)cc23)C1)c1ccc2ccccc2c1` (stereo not drawn) [Compound 80, N-[1-[3-(5-Fluoro-1H-indol-3-yl)propyl]pyrrolidin-3-yl]naphthalene-2-sulphonamide] the inhibition at 1 µM (M3 muscarinic receptors) was 2%, the “σ [%]” value (σ receptors) was 81% and the “α1 [%]” value [1] was 50%. For the same compound, the inhibition at 1 µM (receptors D4.4) was 91%, the inhibition at 1 µM (5-HT7 receptor) was 93% and the inhibition at 1 µM [2] was 98%. It also gave an inhibition at 1 µM (5-HT2A receptor) of 100%.
With `O=S(=O)(NC1CN(CCOc2cccc3c2OCCO3)C1)c1cccc2ccccc12` [Compound 94, N-[1-[2-(2,3-Dihydro-1,4-benzodioxan-8-yloxy)ethyl]azetidin-3-yl]-naphthalene-1-sulphonamide] the “M3 [%]” value (M3 muscarinic receptors) was 1%, the “σ [%]” value (σ receptors) was 71% and the “α1 [%]” value [1] was 87%. For the same compound, the “D4.4 [%]” value (receptors D4.4) was 90%, the “5-HT7 [%]” value (5-HT7 receptor) was 100% and the “5-HT1A [%]” value [2] was 98%. The “5-HT2A [%]” value (5-HT2A receptor) was 99%.
`O=S(=O)(NC1CCN(CCCc2noc3cc(F)ccc23)C1)c1cc2ccc(F)cc2s1` (stereo not drawn) [Compound 234, 6-Fluoro-N-[1-[3-(6-fluoro-1,2-benzoxazol-3-yl)propyl]pyrrolidin-3-yl]benzothiophene-2-sulphonamide] was tested, and the inhibition at 1 µM (M3 muscarinic receptors) was 17%, the “α1 [%]” value [1] was 92% and the inhibition at 1 µM (receptors D4.4) was 70%. For the same compound, the inhibition at 1 µM (5-HT7 receptor) was 97%, the inhibition at 1 µM [2] was 45% and the inhibition at 1 µM (5-HT2A receptor) was 100%. For the same compound, the inhibition at 1 µM [3] was 75%.
With `O=S(=O)(NCC1CCN(CCOc2cccc3c2OCCO3)C1)c1ccc(C(F)(F)F)cc1` (stereo not drawn) [Compound 293, N-[[1-[2-(2,3-Dihydro-1,4-benzodioxin-5-yloxy)ethyl]pyrrolidin-3-yl]methyl]-4-(trifluoromethyl)benzenesulphonamide] the inhibition at 1 µM (M3 muscarinic receptors) was 10%, the “α1 [%]” value [1] was 77% and the inhibition at 1 µM (receptors D4.4) was 35%. For the same compound, the inhibition at 1 µM (5-HT7 receptor) was 90%, the inhibition at 1 µM [2] was 100% and the inhibition at 1 µM (5-HT2A receptor) was 86%. The inhibition at 1 µM [3] was 38%.
In the case of `O=S(=O)(NCC1CCN(CCOc2cccc3c2OCCO3)C1)c1cccc(F)c1` (stereo not drawn) [Compound 298, N-[[1-[2-(2,3-Dihydro-1,4-benzodioxin-5-yloxy)ethyl]pyrrolidin-3-yl]-methyl]-3-fluoro-benzenesulphonamide], the inhibition at 1 µM (M3 muscarinic receptors) is reported as 22%, the “α1 [%]” value [1] is reported as 77% and the inhibition at 1 µM (receptors D4.4) is reported as 48%. The inhibition at 1 µM (5-HT7 receptor) was 93%, the inhibition at 1 µM [2] was 97% and the inhibition at 1 µM (5-HT2A receptor) was 88%. The inhibition at 1 µM [3] was 40%.
For `O=S(=O)(NCC1CCN(CCOc2cccc3c2OCCO3)C1)c1ccc(F)cc1` (stereo not drawn) [Compound 300, N-[[1-[2-(2,3-Dihydro-1,4-benzodioxin-5-yloxy)ethyl]pyrrolidin-3-yl]-methyl]-4-fluoro-benzenesulphonamide], the inhibition at 1 µM (M3 muscarinic receptors) was -2%, the “α1 [%]” value [1] was 83% and the inhibition at 1 µM (receptors D4.4) was 52%. For the same compound, the inhibition at 1 µM (5-HT7 receptor) was 90%, the inhibition at 1 µM [2] was 99% and the inhibition at 1 µM (5-HT2A receptor) was 72%. The inhibition at 1 µM [3] was 28%.
For `O=S(=O)(NCC1CCN(CCOc2cccc3c2OCCO3)C1)c1cccc(O)c1` (stereo not drawn) [Compound 303, N-[[1-[2-(2,3-Dihydro-1,4-benzodioxin-5-yloxy)ethyl]pyrrolidin-3-yl]-methyl]-3-hydroxy-benzenesulphonamide], the inhibition at 1 µM (M3 muscarinic receptors) was 9%, the “α1 [%]” value [1] was 89% and the inhibition at 1 µM (receptors D4.4) was 39%. For the same compound, the inhibition at 1 µM (5-HT7 receptor) was 98%, the inhibition at 1 µM [2] was 96% and the inhibition at 1 µM (5-HT2A receptor) was 96%. The inhibition at 1 µM [3] was 68%.
For `O=S(=O)(NCC1CCN(CCOc2cccc3c2OCCO3)C1)c1ccc(Br)cc1` (stereo not drawn) [Compound 305, 4-Bromo-N-[[1-[2-(2,3-dihydro-1,4-benzodioxin-5-yloxy)ethyl]pyrrolidin-3-yl]methyl]benzenesulphonamide], the inhibition at 1 µM (M3 muscarinic receptors) was 11%, the “α1 [%]” value [1] was 84% and the inhibition at 1 µM (receptors D4.4) was 52%. For the same compound, the inhibition at 1 µM (5-HT7 receptor) was 96%, the inhibition at 1 µM [2] was 101% and the inhibition at 1 µM (5-HT2A receptor) was 93%. For the same compound, the inhibition at 1 µM [3] was 54%.
For `O=S(=O)(NCC1CCN(CCOc2cccc3c2OCCO3)C1)c1ccc2c(c1)CCO2` (stereo not drawn) [Compound 306, N-[[1-[2-(2,3-Dihydro-1,4-benzodioxin-5-yloxy)ethyl]pyrrolidin-3-yl]-methyl]-2,3-dihydrobenzofuran-5-sulphonamide], the inhibition at 1 µM (M3 muscarinic receptors) was 12%, the “α1 [%]” value [1] was 90% and the inhibition at 1 µM (receptors D4.4) was 33%. The inhibition at 1 µM (5-HT7 receptor) was 94%, the inhibition at 1 µM [2] was 99% and the inhibition at 1 µM (5-HT2A receptor) was 81%. For the same compound, the inhibition at 1 µM [3] was 57%.
With `O=S(=O)(NCC1CCN(CCOc2cccc3c2OCCO3)C1)c1ccc(F)c(Cl)c1` (stereo not drawn) [Compound 317, 3-Chloro-N-[[1-[2-(2,3-dihydro-1,4-benzodioxin-5-yloxy)ethyl]pyrrolidin-3-yl]methyl]-4-fluorobenzenesulphonamide] the inhibition at 1 µM (M3 muscarinic receptors) was 8%, the “α1 [%]” value [1] was 84% and the inhibition at 1 µM (receptors D4.4) was 59%. The inhibition at 1 µM (5-HT7 receptor) was 95%, the inhibition at 1 µM [2] was 100% and the inhibition at 1 µM (5-HT2A receptor) was 72%. The inhibition at 1 µM [3] was 47%.
